Measured values reported in patent US20220133894A1, “BISPHOSPHONATE-LINKED COMPOUNDS” (OREGON HEALTH & SCIENCE UNIVERSITY, priority 2019, published 2022).

Key:
MEK1/2 and ERK1/2 = assay: Western blot of MEK1/2 and ERK1/2 phosphorylation in RANKL treated osteoclast cells; assay type: cell-based, mouse; settings: 10 μM KBU2046, RANKL treated RAW 267.4 cells
LNCaP/AR-luc cells = assay: Castration resistant PCa subcutaneous implantation, tumor outgrowth; assay type: in vivo, mice; settings: subcutaneous implants, 80 mg/kg KBU2046 oral, treatment from 4 weeks
Method: To complete our assessments of the androgen related paradigm, the effect of KBU2046 on resistance to hormone therapy was evaluated. The outgrowth of LNCaP/AR-luc cells in castrate mice is routinely utilized as a model to emulate the transition to a castration resistant phenotype (Tran et al., Science 324, 787-790 (2009)). In this model, tumor outgrowth is detectable ˜8 weeks post implantation, and growth kinetics are typically monitored until 16 weeks post implantation. […]
LNCaP or VCaP cells cultured in hormone free media were treated with R1881 (R), KBU2046 (46) and/or enzalutamide (E). […] PSA expression was measured by qRT/PCR, normalized to GAPDH and expressed as a percent of control cells (N=3 replicates); * denotes P<0.05 for groups separated by bar. […] Data are the number of viable cells, expressed as % of control (N=3 replicates); * P<0.05 compared to control. […] Data are tumor size, expressed as luminescence intensity. All data are expressed as mean±SEM.
Castration resistant PCa subcutaneous implantation: 6-7 week old male athymic mice received trans-scrotal bilateral orchiectomy with a single incision in the midline of scrotums under general anesthesia and then allowed to recover for 10 days. […] Twice weekly tumor measurements were performed and androgen receptor activity monitored biweekly through IVIS imaging.

RAW 267.4 cells = assay: ApoTox-Glo Triplex assay in RANKL treated osteoclast cells; assay type: cell-based, mouse; settings: 72 hours after treatment
Method: FIG. 5 represents the improved efficacy seen with KBU2046 combined with ZA. In FIG. 5A bone degradation was tested using osteo assays performed as in FIG. 4D. Cells were treated with KBU2046 (46), ZA at 2, 10 or 20 μM, with the indicated combinations, or vehicle (control; CO). Data are the mean±SEM (N=3 replicates); * denotes P<0.05 compared to control, or between conditions denoted by bars. FIG. 5B provides representative photomicrographs of osteo assay wells. Black color denotes presence of bone matrix; RL: RANKL. (FIGS. 5C-5E) Cell viability, cytotoxicity and apoptosis. RAW 267.4 cells were treated with RANKL, at day 4 they were treated with KBU2046, ZA at 1 or 10 μM (ZA1 or ZA10), the indicated combination, or vehicle (CO) and Triplex assay performed 24, 48 or 72 hours later, per Methods. Data are the mean±SEM (N=4 replicates); ¥, #, * denotes P<0.05 compared to control. (FIGS. 5F-5H) In vivo efficacy. Four cohorts of mice, N=15/cohort, were given intracardiac injections of PC3-luc cells, yielding the following successful injections: N=12 control, N=12 ZA, N=13 KBU2046 and N=13 ZA+KBU2046. Treatment was oral 150 mg KBU2046/kg daily (starting 3 days before IC injection), intraperitoneal ZA 100 μg/kg weekly (starting 1 week before IC injection), with oral and intraperitoneal vehicle controls given as indicated. […] (FIGS. 5C and 5D) Quantification of bone lesions. The macroscopic lesions in the jaw were quantified by direct measurement from CT images, and expressed as the mean±SEM percent of control. Bone density of femurs was measured from CT images, and expressed as the mean±SEM percent of control. * denotes P<0.05 compared to control, and for groups indicated by bars.
We next examined the effect of ZA and KBU2046 on osteoclast cell viability, apoptosis and cytotoxicity. RAW 267.4 cells were treated with RANKL for the duration of the experiment, at day 4 they were then treated with ZA, KBU2046, the combination, or vehicle (for controls), and effect on cell viability, apoptosis and cytotoxicity measured by Triplex assay at 24, 48 and 72 hours after treatment (FIGS. 5C-5E). […]

O=C1c2ccccc2OCC1c1ccc(F)cc1 (centres unmarked) [KBU2046, 3-(4-fluorophenyl)chroman-4-one]
MEK1/2 and ERK1/2 phosphorylation (MEK1/2 and ERK1/2): inhibition
tumor growth (outgrowth in castrate mice) (LNCaP/AR-luc cells): did not alter
cell viability (RAW 267.4 cells; compared to control): significant increases
cytotoxicity (RAW 267.4 cells; compared to control): decreases
apoptosis (RAW 267.4 cells; compared to controls): significant increase
